Tested on: Felis catus
Assay: Reduction in infarct volume in cat at 0.5 mg/kg administered as bolus dose at 15 mins before middle cerebral artery occlusion followed by infusion of 0.14 mg/kg/hr measured after 6 hrs
Assay type: functional
Design: scale not given: the % may be the effect or the level left

Work on C[C@]12N[C@H](Cc3ccccc31)c1ccccc12.O=C(O)/C=C/C(=O)O yielded an Activity of 75%.
